# Laboratory results: patent US11903955B2, “Methods of treating heart failure with reduced ejection fraction” (ASTRAZENECA AB, priority 2019, dated 2024)
# Where two headings read alike, the source gives them in different places.
# Tested on: patients with chronic heart failure with reduced ejection fraction (LVEF ≤40%)
# Description: Eligibility requirements included an age of at least 18 years, New York Heart Association (NYHA) class II, III, or IV symptoms, and an ejection fraction of 40% or less. […] Patients with atrial fibrillation or atrial flutter on their baseline electrocardiogram were required to have a NT-proBNP level of at least 900 pg/mL, irrespective of history of heart failure hospitalization. Patients were required to receive standard drug and device therapy for heart failure including an angiotensin-converting enzyme (ACE) inhibitor, angiotensin receptor blocker (ARB), or sacubitril/valsartan; a beta-blocker, unless contraindicated or not tolerated, and a mineralocorticoid receptor (MR) […], if considered appropriate. Doses were required to be individually optimized, in accordance with the targets recommended in guidelines, and stable for at least 4 weeks (excepting diuretics, which could be dosed flexibly). Investigators were advised that patients with type 2 diabetes should continue to take their glucose-lowering therapies, but these could be adjusted as required. Specifically, the protocol stated that the dose of insulin, sulfonylurea treatment, or both, could be reduced to minimize the risk of hypoglycemia, for example in patients with a baseline hemoglobin A1C (HbA1c) level below 7%.
# All the patients provided written informed consent and entered a 14-day enrollment period during which the trial inclusion and exclusion criteria were checked and baseline information gathered, including findings from clinical examination and laboratory measurements. […] Investigators used an interactive voice or web response system to obtain treatment assignment. Randomization was stratified based on a diagnosis of type 2 diabetes, defined as either an established diagnosis or a HbA1c level of 6.5% or greater (≥48 mmol/mol) confirmed in a central laboratory at screening. Patients were evaluated at 14 days and 60 days after randomization, with a focus on assessment of heart failure and volume status, adverse events, and checking renal function and potassium. Further study visits took place at 4 months and at 4-month intervals thereafter. The protocol required that study drug be permanently discontinued if pregnancy or diabetic ketoacidosis occurred.
# The primary outcome was a composite of a first episode of worsening heart failure or death from cardiovascular causes. An episode of worsening heart failure was either an unplanned hospitalization for heart failure or an urgent heart failure visit requiring intravenous therapy.^14 The first of the secondary outcomes was the composite of heart failure hospitalization or cardiovascular death.
# Outcomes were adjudicated by a clinical-end-points committee, blinded to treatment assignment, according to prespecified criteria.
# Using a two-sided alpha of 5%, we calculated that 844 primary endpoints would provide a statistical power of 90% for the test of the hypothesis. With an expected annual event rate of 11% in the placebo treatment group, approximately 4500 patients were estimated to provide the required number of primary events, based on an anticipated recruitment period of 18 months and an average follow-up period of approximately 24 months. A closed testing procedure was used, including a prespecified hierarchical testing of the primary and secondary endpoints in the order specified above. Type I error was controlled at a two-sided 0.0499 alpha level for multiplicity across primary and secondary endpoints and taking account of one interim efficacy analysis.
# Data from all randomly assigned patients were included in the analyses of the primary and secondary outcomes, according to the intention-to-treat principle. Baseline characteristics were summarized as means and standard deviations, medians and inter-quartile ranges, or percentages.
structure (smiles),measurement,setting,value
"CCOc1ccc(Cc2cc([C@@H]3O[C@H](CO)[C@@H](O)[C@H](O)[C@H]3O)ccc2Cl)cc1 [Dapagliflozin, dapagliflozin]","Cardiovascular death or hospitalization for heart failure, No. (%)",No T2DM (N = 1298),169 (13.0) No. (%)
same,"Cardiovascular death or hospitalization for heart failure, Subjects with Event/100 Patient-Yr",No T2DM (N = 1298),9.1 Event/100 Patient-Yr
same,"Cardiovascular death, No. (%)",No T2DM (N = 1298),106 (8.2) No. (%)
same,"Cardiovascular death, Subjects with Event/100 Patient-Yr",No T2DM (N = 1298),5.5 Event/100 Patient-Yr
same,"Death from any cause, No. (%)",No T2DM (N = 1298),133 (10.3) No. (%)
same,"Death from any cause, Subjects with Event/100 Patient-Yr",No T2DM (N = 1298),6.9 Event/100 Patient-Yr
same,"Hospitalization for heart failure or an urgent heart failure visit, No. (%)",No T2DM (N = 1298),95 (7.3) No. (%)
same,"Hospitalization for heart failure or an urgent heart failure visit, Subjects with Event/100 Patient-Yr",No T2DM (N = 1298),5.1 Event/100 Patient-Yr
same,"Hospitalization for heart failure, No. (%)",No T2DM (N = 1298),93 (7.2) No. (%)
same,"Hospitalization for heart failure, Subjects with Event/100 Patient-Yr",No T2DM (N = 1298),5.0 Event/100 Patient-Yr
same,"Primary composite outcome, No. (%)",No T2DM (N = 1298),171 (13.2) No. (%)
same,"Primary composite outcome, Subjects with Event/100 Patient-Yr",No T2DM (N = 1298),9.2 Event/100 Patient-Yr
same,Total number of (first and recurrent) heart failure hospitalizations and cardiovascular death,No T2DM (N = 1298),239
same,"Urgent heart failure visit, No. (%)",No T2DM (N = 1298),3 (0.2) No. (%)
same,"Urgent heart failure visit, Subjects with Event/100 Patient-Yr",No T2DM (N = 1298),0.2 Event/100 Patient-Yr
same,"Worsening renal function (composite), No. (%)",No T2DM (N = 1298),10 (0.8) No. (%)
same,"Worsening renal function (composite), Subjects with Event/100 Patient-Yr",No T2DM (N = 1298),0.5 Event/100 Patient-Yr
same,"Cardiovascular death or hospitalization for heart failure, No. (%)",T2DM (N = 1075),213 (19.8) No. (%)
same,"Cardiovascular death or hospitalization for heart failure, Subjects with Event/100 Patient-Yr",T2DM (N = 1075),14.4 Event/100 Patient-Yr
same,"Cardiovascular death, No. (%)",T2DM (N = 1075),121 (11.3) No. (%)
same,"Cardiovascular death, Subjects with Event/100 Patient-Yr",T2DM (N = 1075),7.7 Event/100 Patient-Yr
same,"Death from any cause, No. (%)",T2DM (N = 1075),143 (13.3) No. (%)
same,"Death from any cause, Subjects with Event/100 Patient-Yr",T2DM (N = 1075),9.1 Event/100 Patient-Yr
same,"Hospitalization for heart failure or an urgent heart failure visit, No. (%)",T2DM (N = 1075),142 (13.2) No. (%)
same,"Hospitalization for heart failure or an urgent heart failure visit, Subjects with Event/100 Patient-Yr",T2DM (N = 1075),9.6 Event/100 Patient-Yr
same,"Hospitalization for heart failure, No. (%)",T2DM (N = 1075),138 (12.8) No. (%)
same,"Hospitalization for heart failure, Subjects with Event/100 Patient-Yr",T2DM (N = 1075),9.3 Event/100 Patient-Yr
same,"Primary composite outcome, No. (%)",T2DM (N = 1075),215 (20.0) No. (%)
same,"Primary composite outcome, Subjects with Event/100 Patient-Yr",T2DM (N = 1075),14.6 Event/100 Patient-Yr
same,Total number of (first and recurrent) heart failure hospitalizations and cardiovascular death,T2DM (N = 1075),328
same,"Urgent heart failure visit, No. (%)",T2DM (N = 1075),7 (0.7) No. (%)
same,"Urgent heart failure visit, Subjects with Event/100 Patient-Yr",T2DM (N = 1075),0.4 Event/100 Patient-Yr
same,"Worsening renal function (composite), No. (%)",T2DM (N = 1075),18 (1.7) No. (%)
same,"Worsening renal function (composite), Subjects with Event/100 Patient-Yr",T2DM (N = 1075),1.2 Event/100 Patient-Yr
same,"Cardiovascular death or hospitalization for heart failure, Events/100 Patient-Yr",all patients (N = 2373),11.4 Events/100 Patient-Yr
same,"Cardiovascular death or hospitalization for heart failure, No. (%)",all patients (N = 2373),382 (16.1) No. (%)
same,"Cardiovascular death, Events/100 Patient-Yr",all patients (N = 2373),6.5 Events/100 Patient-Yr
same,"Cardiovascular death, No. (%)",all patients (N = 2373),227 (9.6) No. (%)
same,"Death from any cause, Events/100 Patient-Yr",all patients (N = 2373),7.9 Events/100 Patient-Yr
same,"Death from any cause, No. (%)",all patients (N = 2373),276 (11.6) No. (%)
same,"Hospitalization for heart failure or an urgent heart failure visit, Events/100 Patient-Yr",all patients (N = 2373),7.1 Events/100 Patient-Yr
same,"Hospitalization for heart failure or an urgent heart failure visit, No. (%)",all patients (N = 2373),237 (10.0) No. (%)
same,"Hospitalization for heart failure, Events/100 Patient-Yr",all patients (N = 2373),6.9 Events/100 Patient-Yr
same,"Hospitalization for heart failure, No. (%)",all patients (N = 2373),231 (9.7) No. (%)
same,"Primary composite outcome, Events/100 Patient-Yr",all patients (N = 2373),11.6 Events/100 Patient-Yr
same,Total number of (first and recurrent) heart failure hospitalizations and cardiovascular death,all patients (N = 2373),567
same,"Urgent heart failure visit, Events/100 Patient-Yr",all patients (N = 2373),0.3 Events/100 Patient-Yr
same,"Urgent heart failure visit, No. (%)",all patients (N = 2373),10 (0.4) No. (%)
same,"Worsening renal function (composite), Events/100 Patient-Yr",all patients (N = 2373),0.8 Events/100 Patient-Yr
